Holding throughout (assay): NCI tumour cell line growth inhibition, 48 h
Test [1] concerns MDA-MB-231 breast.
Test [2] concerns MOLT-4 leukemia.
Test [3] deals with KM12 colon.
Test [4] deals with EKVX NSCLC.
Test [5] relates to U251 CNS.
In test [6] the test system is OVCAR-4 ovarian.
The subject of test [7] is HOP-62 NSCLC.
Test [8] relates to OVCAR-3 ovarian.
Test [9] relates to NCI/ADR-RES ovarian.
Test [10] relates to MALME-3M melanoma.

Where “and” joins values, the source holds several entries; their conditions need not be identical. Equal entries are not always repeated.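 The compound was tested at five concentrations on cells cultured in 96-well plates, with a 48-hour exposure period. Here, GI50 denotes the concentration required for 50% inhibition of growth. TGI is the concentration that stops growth completely.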

Consider `Nc1nc2ccc([C@@H]3Nc4ccc5[nH]ncc5c4[C@H]4[C@H]5CCC(C5)[C@H]43)cc2s1`, for which the GI50 in test [1] is 1.29 µM; in test [2] it was 0.632 µM; in test [3], 0.838 µM; in test [4] it was 1.47 µM; in test [5], 1.18 µM; in [6], 2.2 µM. The GI50 in test [7] was 1.14 µM; in [8] it was 0.366 µM; in test [9] it was 0.966 µM; in [10], 0.968 µM. The TGI in test [1] was determined as 11.6 µM; in test [2], 3.05 µM; in test [3], 2.3 µM; in [4] it was 4.92 µM; in test [5] it was 11.5 µM; in [6], 6.05 µM. Besides, the TGI in test [7] is 2.9 µM; in test [8], 1.25 µM; in test [9], 4 µM; in test [10] it was 2.6 µM.

For the compound `COC(=O)c1ccc(=O)c2nc3/c(=C/O)c(O)cc(=O)c3[nH]c12`, the GI50 in test [1] was 3.57 µM; in [2] it was 0.562 µM; in test [3] it was 1.6 µM; in test [4] it was 0.557 µM; in [5] it was 0.176 µM; in test [6] it was 3.58 µM. For the same compound, the GI50 in test [7] is 0.461 µM; in [8], 1.04 µM; in test [9], 0.379 µM; in test [10] it was 3.16 µM. For the same compound, the TGI is 19.3 µM and 19.2 µM in test [1]; 12.1 µM and > 60.8 µM in test [2]; 20.1 µM and 18.1 µM in [3]; 8.52 µM and 14.2 µM in test [4]; 28.6 µM and 12.3 µM in [5]; 31.4 µM and 29.8 µM in [6]. For the same compound, the TGI in test [7] is 18.7 µM and 16.2 µM; in test [8] it was 25.7 µM and 15 µM; in test [9], > 33.6 µM and 13.8 µM; in [10], 11.1 µM and 18.6 µM.

With `C=C1C(=O)O[C@H]2[C@H]1CC/C(COC(=O)C(=O)c1c[nH]c3ccc(OC)cc13)=C\CC[C@@]1(C)O[C@@H]21`, the GI50 in test [1] is 6.27 µM; in test [2], 5.31 µM; in test [3], 7.82 µM; in [4] it was 9.85 µM; in test [5], 7.06 µM; in test [6], 6.93 µM. Besides, the GI50 in [7] was 6.49 µM; in [8], 1.87 µM; in test [9] it was 9.53 µM; in [10], 6.43 µM. For the same compound, the TGI is 12 µM in test [1]; 16 µM in test [2]; 14.2 µM in [3]; 24.7 µM in test [4]; 10.8 µM in test [5]; 21.4 µM in test [6]. For the same compound, the TGI in test [7] stood at 11.9 µM; in test [8] it was 3.42 µM; in test [9] it was 29.6 µM; in test [10], 11 µM.

Consider `O=C1C=CC(=O)C1(Br)Br`, for which the TGI is 23.1 µM in test [1]; over 100 µM in test [2]; 29.4 µM in test [3]; 29.7 µM in test [4]; 29.1 µM in [5]; 33.2 µM in [6]. For the same compound, the TGI in test [7] was found to be 38.4 µM; in test [8], 31.4 µM; in [9], 68.3 µM; in test [10], 41.5 µM.

With `COc1cc2c3c(n(CCCN)c(=O)c2cc1OC)-c1ccc(F)cc1C3=O`, the GI50 was 12.8 µM in [1]; 0.385 µM in test [2]; 5.95 µM in [3]; 11.6 µM in [4]; 0.746 µM in test [5]; 6.04 µM in test [6]. In addition, the GI50 is 0.544 µM in test [7], 4.46 µM in test [8], 10.6 µM in test [9] and 9.22 µM in test [10]. The TGI in test [1] was found to be 26.3 µM; in test [2], 4.13 µM; in test [3], 20.3 µM; in test [4], 25.1 µM; in [5] it was 6.45 µM; in [6], 21.2 µM. Further, the TGI in [7] worked out at 2.05 µM; in test [8], 17.4 µM; in [9] it was 25.2 µM; in test [10], 28.5 µM.

For the compound `COc1c2ccccc2c(O)c2c(=O)c(C(=O)O)cn(C)c12`, the GI50 in test [1] is over 100 µM; in test [2], over 100 µM; in test [3] it was over 100 µM; in test [4], 85.2 µM; in test [5] it was over 100 µM; in test [6], over 100 µM. Further, the GI50 in test [7], in test [8] and in test [9] was over 100 µM throughout. The TGI in [1], in test [2], in test [3], in test [4], in [5] and in [6] was over 100 µM in each case. Further, the TGI in test [7], in test [8] and in test [9] was over 100 µM each time.

As to `C=C(CNCCc1ccc(O)cc1)[C@@H]1CC[C@]2(CO)CC[C@]3(C)[C@H](CC[C@@H]4[C@@]5(C)CCC(=O)C(C)(C)[C@@H]5CC[C@]43C)[C@@H]12`, the GI50 in test [1] is 1.76 µM; in test [2], 1.96 µM; in test [3] it was 1.82 µM; in test [4], 1.7 µM; in test [5] it was 1.56 µM; in test [6], 1.65 µM. The values for the GI50 in [7], in test [8] and in test [10] were 1.58 µM, 1.67 µM and 1.65 µM, respectively. Also, the TGI was determined as 3.2 µM in test [1]; 4.47 µM in test [2]; 3.61 µM in test [3]; 3.24 µM in test [4]; 2.92 µM in test [5]; 3.12 µM in test [6]. For the same compound, the TGI in [7] turned out to be 3.11 µM; in [8] it was 3.08 µM; in test [10], 3.25 µM.

On to `OCCCSc1ccccc1SCCCO`, for which the TGI in test [1], in test [2], in test [3], in test [4], in test [5] and in test [6] was over 100 µM each time. Also, the TGI in test [7], in test [8] and in test [9] was over 100 µM in each case.

On to `O=S(=O)(NC(=S)Nc1ccccc1)c1ccc(N2N=C3c4ccccc4CC3C2c2cccs2)cc1` (stereo not given), for which the GI50 is 24.8 µM in test [1]; 17.5 µM in test [2]; 21.5 µM in test [3]; 19.5 µM in [4]; 26.2 µM in [5]; 69.8 µM in test [6]. Besides, the GI50 in test [7] is 20.3 µM; in test [8], 17.2 µM; in test [9] it was 19.3 µM. The TGI in test [1] is 62.3 µM; in test [2], over 100 µM; in [3] it was over 100 µM; in test [4] it was 54.4 µM; in test [5], 76.7 µM; in test [6], over 100 µM. In addition, the TGI in test [7] was 45.7 µM; in [8], 46.9 µM; in test [9], 44.5 µM.

Consider `CCOC(OCC)C(CC)[Se]c1ccccc1[N+](=O)[O-]` (stereo not given), for which the TGI in test [1] is over 100 µM; in test [2], over 86.7 µM; in test [3], 71.4 µM; in [4] it was over 100 µM; in test [5], 15.4 µM; in [6], over 100 µM. In addition, the results for the TGI in [7], in test [8] and in [10] were over 74.2 µM, 6.56 µM and over 100 µM, respectively.

On to `NC1=NC(c2ccccc2)N=C(Nc2ccccc2)N1` (stereo not given), for which the GI50 in test [1] was over 100 µM; in test [2], over 100 µM; in test [3], 31.6 µM; in test [4] it was over 100 µM; in test [5] it was 42.1 µM; in [6], over 100 µM. Also, the GI50 in test [7] is over 100 µM; in [8], 32 µM; in test [9], over 100 µM. Moreover, the TGI in test [1], in test [2], in test [3], in [4], in [5] and in test [6] was over 100 µM each time. Besides, the TGI in test [7], in [8] and in test [9] was over 100 µM in each case.

For the compound `COC(=O)c1ccccc1NC(=O)C(=O)CC(=O)c1ccccc1NC1=CC(=O)C(=O)c2ccccc21`, the TGI in [1] was 23 µM; in test [2] it was 51.1 µM; in test [3], 52.8 µM; in test [4], over 100 µM; in [5], 67.4 µM; in test [6] it was 36.2 µM. The TGI in [7] is over 74.8 µM; in test [8], 12.3 µM; in [10], 11.1 µM.

Turning to `CO[C@H]1[C@H](O)[C@H](O[C@H]2CC[C@@]3(C)[C@H](CC[C@@H]4[C@@H]3CC[C@]3(C)[C@@H](C5=CC(=O)OC5)CC[C@]43O)C2)O[C@@H](C)[C@@H]1O`, the TGI was 0.00907 µM in test [1]; 0.00766 µM and < 0.0265 µM in test [2]; 0.0125 µM in test [3]; 0.00148 µM in test [4]; 0.00385 µM and 0.0152 µM in [5]; 0.000626 µM in test [6]. Besides, the TGI in [8] came to 0.00116 µM; in test [9] it was 0.00115 µM; in test [10], 0.000721 µM.

Regarding `COc1cc2c3c(n(CCN)c(=O)c2cc1OC)-c1cc2c(cc1C3=O)OCO2`, the GI50 in test [1] was 0.255 µM; in test [2], 0.084 µM; in [3], 0.235 µM; in [4], 1.59 µM; in [5], 0.367 µM; in test [6] it was 1.43 µM. The GI50 was 0.122 µM in test [7], 0.152 µM in [9] and 0.24 µM in test [10]. For the same compound, the TGI in [1] is 0.84 µM; in [2], over 100 µM; in test [3], 1.51 µM; in test [4] it was 3.97 µM; in test [6], 3.02 µM; in test [7], 0.774 µM. Moreover, the TGI in test [9] was determined as 0.808 µM; in test [10] it was 6.12 µM.

Consider `Cc1ccc(-c2ccc(Nc3c4ccccc4nc4ccccc34)cc2)cn1`, for which the TGI is 3.59 µM in [2]; 19.1 µM in test [3]; over 100 µM in test [4]; 3.77 µM in test [7]; 6.41 µM in [8]; 65.6 µM in test [9].

As for `C=C(CN1CCN(c2cccc(C(F)(F)F)c2)CC1)c1ccc(C(=O)Nc2ccccc2N)cc1`, the GI50 is 0.941 µM in test [1]; 0.13 µM in [2]; 0.486 µM in [3]; 2.92 µM in [4]; 1.18 µM in [5]; 3.94 µM in test [6]. Moreover, the GI50 was 0.696 µM in test [7], 0.545 µM in test [8] and 2.34 µM in test [9]. For the same compound, the TGI amounted to 3.39 µM in [1]; 1.29 µM in test [2]; 5.15 µM in [3]; 19.4 µM in test [4]; 5.84 µM in test [5]; 41 µM in test [6]. Besides, the TGI in test [7] was 6.27 µM; in test [8] it was 6.2 µM; in test [9], over 50 µM.

Consider `CCCCn1c2c(c3ccccc3c1=O)C(=O)c1ccccc1-2`, for which the TGI is over 100 µM in test [1]; over 100 µM in test [3]; over 100 µM in test [4]; over 100 µM in test [5]; 38.4 µM in test [6]; over 100 µM in test [7]. In addition, the TGI in test [8], in test [9] and in [10] was over 100 µM throughout.

For the compound `Nc1c(C(=O)c2cccc(OCCN3CCOCC3)c2)cnn1-c1ccc(F)cc1`, the GI50 in test [1], in test [2], in test [3], in [5], in test [6] and in test [7] was over 25 µM in each case. In addition, the GI50 in test [8], in test [9] and in test [10] was over 25 µM in each case. Moreover, the TGI in test [1], in test [2], in test [3], in [5], in [6] and in [7] was over 25 µM each time. Also, the TGI in [8], in test [9] and in test [10] was over 25 µM in each case.

As to `OCCSCCCSCCO`, the TGI in test [1], in test [2], in test [3], in test [4], in [5] and in test [6] was over 100 µM each time. Also, the TGI in test [7], in test [8] and in test [9] was over 100 µM each time.
